Article PMC9298194, “Clinical Pharmacokinetics of Daprodustat: Results of an Absorption, Distribution, and Excretion Study With Intravenous Microtracer and Concomitant Oral Doses for Bioavailability Determination” (Clinical Pharmacology in Drug Development, 2021)
Values joined by “and” are separate entries in the source; they are usually repeats but may differ in a detail not shown here. Equal values may be shown once. Marks after values point to notes of the source that are not given here.

Tests used:
[1] = Blood and plasma total radioactivity pharmacokinetics after [14C]-GSK1278863; format: in vivo, human; conditions: for tmax, total radioactivity: median (range)
Procedure: As per standard practice for administration of radiolabeled drug, the IV and oral dosing solutions were analyzed for daprodustat via assessment of the radioactivity and through application of the predetermined specific activity. Whole blood samples were collected for measurement of each of the following: blood total radioactivity in period 2 and plasma total radioactivity in period 1, plasma concentrations of daprodustat, and the 6 predominant circulating metabolites in periods 1 and 2. Blood samples were collected at 1, 3, and 6 hours after dosing for blood assessments. Blood samples were collected for plasma assessments before dosing and at 0.50, 1, 1.25, 1.5, 2, 3, 4, 6, 8, 10, 12, 24, 36, 48, 72, 96, 120, and 144 hours after dosing.
Whole blood samples for unlabeled assays were collected into K3 ethylenediaminetetraacetic acid tubes, gently inverted several times and immediately placed on ice water. Samples were then centrifuged at 1500 × g for 15 minutes; the supernatant plasma was transferred to Nunc tubes and stored at −20°C before shipment. Samples for unlabeled daprodustat and specific assay metabolite measurements were shipped frozen to PPD Laboratories (Middleton, Wisconsin). Samples for radioactivity measurements were shipped frozen to either GSK Research and Development (Ware, Hertfordshire, UK; period 1) or Covance (period 2). Some period 2 plasma samples were subsequently analyzed by accelerator mass spectrometry (AMS) at Ware (UK) after being not quantifiable by LSC analysis.
Human urine, feces, and blood samples from treatment period 2 were analyzed by Covance using LSC. The LLQ for urine using LSC was 5.63 ng Eq/mL, using a 1000 μL aliquot of human urine. The LLQ for blood using LSC was 11.6 ng Eq/mL, using a 400 μL aliquot of human blood. The LLQ for feces using LSC was 25.3 ng Eq/mL, using a 0.2‐ to 0.4‐g aliquot of human feces. Treatment period 2 plasma samples that were not quantifiable following LSC analysis at Covance were subsequently reanalyzed for total radioactivity by AMS at GSK. The LLQ using AMS was 15.8 pg Eq/mL, using a 50 μL aliquot of human plasma.
Plasma daprodustat and [^14C]‐GSK1278863 plasma and blood total radioactivity concentration‐time data were analyzed by noncompartmental methods with WinNonlin Version 6.3 or above (Certara, Princeton, New Jersey). Calculations were based on the actual sampling times recorded during the study. From the plasma concentration‐time data, the following PK parameters were determined for daprodustat, its metabolites, [^14C]‐GSK1278863, and total radioactivity, as the data permitted: maximum observed plasma concentration (Cmax), time to Cmax (tmax), area under the plasma concentration–time curve (AUC) from time 0 to the last measurable concentration (AUC0‐t), AUC from time 0 extrapolated to infinity (AUC0–inf), and apparent terminal phase half‐life (t½), following oral and IV dosing. Additionally, daprodustat volume of distribution at steady state (Vss) and the total systemic clearance (CL) were derived following IV dosing, and daprodustat absolute bioavailability (F) was determined from the oral tablet and IV plasma PK data from treatment period 1 with the following equation: F=AUCpo/AUCIV×doseIV/dosepo
To assess relative exposure levels between parent daprodustat and the measured metabolites, the ratio of parent daprodustat/total radioactivity was calculated for the plasma PK parameters following IV and oral administration of [^14C]‐GSK1278863: Cmax, AUC0‐t, and AUC0‐inf.

[2] = coadministered with gemfibrozil; cited from earlier work
[3] = healthy volunteers; cited from earlier work
[4] = IV infusion, plasma, mean (SD), n = 5
[5] = oral solution, plasma, mean (SD)

For O=C(O)CNC(=O)C1C(=O)N(C2CCCCC2)C(=O)N(C2CCCCC2)C1=O [Daprodustat], the “AUC0‐inf ratio of plasma daprodustat to plasma total radioactivity” value ([1]; IV administration) was 0.40, the “AUC0‐t ratio of plasma daprodustat to plasma total radioactivity” value ([1]; IV administration) was 0.40 and the “Cmax ratio of plasma daprodustat to plasma total radioactivity” value ([1]; IV administration) was 0.68. The “AUC0‐t, total radioactivity” value ([1]; IV infusion, plasma, mean (SD)) was 6.62 (1.20) ng Eq • h/mL, the “Cmax, total radioactivity” value ([1]; IV infusion, plasma, mean (SD)) was 3.04 (0.49) ng Eq/mL and the “AUC0‐inf, total radioactivity” value [1, 4] was 6.79 (1.31) ng Eq • h/mL. The “CL, total radioactivity” value [1, 4] was 7.59 (1.50) μg/[ng Eq • h/mL], the “Vss, total radioactivity” value [1, 4] was 36.3 (19.6) μg/[ng Eq/mL] and the “t½, total radioactivity” value [1, 4] was 8.88 (6.58) h. The “tmax, total radioactivity” value ([1]; IV infusion, plasma) was 0.98 h, the “tmax, total radioactivity” value ([1]; IV infusion, plasma, listed as [^14C]‐GSK1278863) was 0.983 (0.983−1.25) h and the “parent daprodustat as share of total circulating radioactivity in plasma” value ([1]; following IV and oral solution administration, AUC ratio) was “Approximately 40%”. For the same molecule, the “blood:plasma ratio of total radioactivity” value ([1]; from Cmax in blood and plasma after oral solution) was 0.46, the “AUC0‐inf ratio of plasma daprodustat to plasma total radioactivity” value ([1]; oral solution administration) was 0.42 and the “AUC0‐t ratio of plasma daprodustat to plasma total radioactivity” value ([1]; oral solution administration) was 0.43. For the same molecule, the “Cmax ratio of plasma daprodustat to plasma total radioactivity” value ([1]; oral solution administration) was 0.87, the “Cmax, total radioactivity” value ([1]; oral solution, blood, mean (SD), listed as [^14C]‐GSK1278863) was 302 ng Eq/mL and 302 (95.6) ng Eq/mL and the “tmax, total radioactivity” value ([1]; oral solution, blood) was 1.00 (1.00−3.00) h. For the same molecule, the “AUC0‐t, total radioactivity” value ([1]; oral solution, blood, t = 6 hours, mean (SD)) was 835 (154) ^b ng Eq • h/mL, the “AUC0‐inf, total radioactivity” value [1, 5] was 2312 (447) ng Eq • h/mL and the “AUC0‐t, total radioactivity” value [1, 5] was 2239 (441) ng Eq • h/mL. For the same molecule, the “t½, total radioactivity” value [1, 5] was 62.4 (9.62) h, the “Cmax, total radioactivity” value ([1]; oral solution, plasma, mean (SD), listed as [^14C]‐GSK1278863) was 654 ng Eq/mL and 654 (219) ng Eq/mL and the “tmax, total radioactivity” value ([1]; oral solution, plasma) was 0.76 h. The “tmax, total radioactivity” value ([1]; oral solution, plasma, listed as [^14C]‐GSK1278863) was 0.758 (0.500−3.00) h, the “increase in the plasma exposure of daprodustat” value [2] was 18.6 fold and the renal clearance [3] was “≈ 0.20 mL/min”.
